Legend:
[1] = DNP hyperpolarization (Oxford HYPERSENSE), single-shot 13C NMR in water; assay type: physicochemical; conditions: hyperpolarized sample in water
Text: FIG. 1 is a single-shot hyperpolarized ^13C nuclear magnetic resonance (NMR) spectrum of 2,3-^13C diacetyl in water. Hyperpolarized 2,3-^13C diacetyl was produced by a commercially available hyperpolarizer (Oxford HYPERSENSE™, Oxford Instruments Molecular Biotools Ltd., Tubney Woods, Abingdon, Oxfordshire, United Kingdom). The sample has about 20% nuclear polarization. The thermally polarized spectrum (not shown) is similar after many averages.
In some embodiments, the hyperpolarizing is performed by DNP. DNP refers to transferring spin polarization from electrons to nuclei. DNP can be performed by doping a material with a free radical. The unpaired electrons in the free radical can be polarized, for example, by exposure to a high magnetic field and low temperature. Irradiation at the electron paramagnetic resonance frequency can then serve to transfer polarization to the nuclei. By “hyperpolarization,” it is meant that the sample is polarized to a level over that found at room temperature and 1 Tesla, preferably polarized to a polarization degree in excess of 0.1%, more preferably 1%, even more preferably 10%.

[2] = butter; cited from earlier work
[3] = 13C NMR inversion recovery of diacetyl / monohydrate in water; assay type: physicochemical; conditions: pH 7, water
Experimental: ^13C-labelled diacetyl was prepared from ^13C2 oxalate, which was reacted with N, N′-dimethylethylenediamine to afford 2,3-^13C2-1,4-dimethylpiperazine-2,3-dione in 97% yield. Two equivalents of methyl magnesium bromide were added to the piperazine dione to produce the dimethyl piperazine N,O-acetal. Crude acetal was hydrolyzed with 10% aqueous HCl to yield 2,3-^13C2-diacetyl, which was purified by fractional distillation. The carbonyl carbons in diacetyl are magnetically equivalent by symmetry, so at modest resolution (such as that commonly achieved in an imaging system), the spectrum is expected to have only a single line. Neat 2,3-^13C diacetyl does have a single line carbon-13 NMR spectrum, however the carbon spectrum in water has five lines. In water, the monohydrate (i.e., CH3—(^13C═O)(^13C(OH)2)CH3) with classic AX doublets (splitting JC-C=50 Hz) is the majority species. See Bell, Adv. Phys. Org. Chem., 4, 1 (1966); Bell and McDougall, Trans. Faraday Soc., 56, 1281-1285 (1960); and Greenzaid et al., J. Am. Chem. Soc., 89, 749 (1967). The dihydrate is undetectable. Equilibrium can be shifted back to diacetyl by changing solvent, and the rate of interconversion is pH dependent. At pH 7, inversion of the diacetyl alone causes recovery in 8 s, which gives the rate of dehydration. Inversion of all lines causes diacetyl to recover in 22 s.

CC(=O)C(C)=O [diacetyl]
nuclear polarization [1]: about 20%
partitioning between phases [2]: mostly found in the fatty phase
recovery time after inversion of the diacetyl alone (gives the rate of dehydration) [3]: 8 s
recovery time of diacetyl after inversion of all lines [3]: 22 s

Reference: patent US20150258220A1, “MAGNETIC RESONANCE IMAGING AND/OR SPECTROSCOPY CONTRAST AGENTS AND METHODS OF USE THEREOF” (Duke University, priority 2008, published 2015)
